The test deals with T1, hDGAT1 (Homo sapiens, UniProt O75907).
T1 construct: host or cells: Sf9 insect cells (baculovirus); microsomal preparation
T1 sequence (O75907 1-488): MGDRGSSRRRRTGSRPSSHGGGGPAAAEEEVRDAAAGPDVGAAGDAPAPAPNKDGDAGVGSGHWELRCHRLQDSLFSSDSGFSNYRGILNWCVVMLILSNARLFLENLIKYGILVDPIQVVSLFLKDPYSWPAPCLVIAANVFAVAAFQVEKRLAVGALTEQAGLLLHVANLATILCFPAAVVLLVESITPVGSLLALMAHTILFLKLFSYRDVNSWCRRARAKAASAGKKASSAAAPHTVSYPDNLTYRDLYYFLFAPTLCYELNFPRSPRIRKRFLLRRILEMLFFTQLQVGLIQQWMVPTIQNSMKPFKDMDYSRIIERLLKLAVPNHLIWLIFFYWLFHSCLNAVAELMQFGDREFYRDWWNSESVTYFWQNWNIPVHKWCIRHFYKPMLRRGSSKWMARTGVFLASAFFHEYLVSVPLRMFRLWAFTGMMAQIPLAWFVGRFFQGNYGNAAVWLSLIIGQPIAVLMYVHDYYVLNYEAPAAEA
The experiment in a line: In-vitro DGAT1 assay (hDGAT1 microsomes from Sf9 cells, 14C oleoyl CoA, triglyceride formation). In kind it is biochemical. The method, then: In-vitro Protocol for DGAT1 Assay
Sf9 Culture and Treatment
Sf9 cells were grown in T25 flasks containing Graces's Insect media with 10% FBS with antibiotic (100 units/mL penicillin, 100 μg/mL streptomycin sulphate, 0.25 μg/mL Amptotericin B as Fungizone) grown in a 27° C. incubator:
hDGAT1ORF expression clone (RZPDo839C09146 in pDEST vector) was obtained from RZPD, Germany. hDGAT1 bacmid DNA was obtained by transformation of the hDGAT expression clone into DH10Bac E. coli competent cells. Approximately 1 μg of hDGAT1 bacmid DNA was infected into Sf9 cells with Cellfectin (Invitrogen) reagent. Following infection, Sf9 cells were incubated at 27° C. for 30 minutes. Five hours after infection, the media was replaced with growth media containing antibiotic (100 units/mL penicillin, 100 μg/mL streptomycin sulphate, 0.25 μg/mL Amptotericin B as Fungizone) and incubated at 27° C. for 72 hours. The supernatant containing the virus was centrifuged at 1500×g for 5 minutes, passed through 0.22 μm filter, and subsequently stored at 4° C. The virus was further amplified three more times by re-infection of Sf9 cells and the viral titer was determined by plaque assay.
Preparation of DGAT1 Microsomes from Sf9 Cells
Sf9 cells were seeded in spinner flasks on day 0 at a cell density of 1×10^6 and infected on day 1 with hDGAT1 baculovirus at a multiplicity of infection (MOI) of 5 and a cell density of 2×10^6. On day 3 (or 66-72 hours), cells were harvested and centrifuged at 2500×g for 10 minutes. Pellet was resuspended in lysis buffer (100 mM sucrose, 50 mM KCl, 40 mM KH2PO4, 30 mM EDTA, pH 7.2) and passed through 21-gauge needle approximately 10 times. The mixture was centrifuged at 12,000 rpm in a Sigma 12158-H rotor at 4° C. for 30 minutes. The supernatant was subjected to centrifugation at 35,000 rpm in a Beckman Ti-45 rotor at 4° C. for 1 hour. The resultant pellet containing the microsomes were resuspended overnight in 1 mL of lysis buffer and total protein concentration was estimated using Bradford Reagent. Microsomes were aliquoted and stored at −20° C.
Measurement of DGAT1 Activity
Frozen aliquots of hDGAT1 containing microsomes were thawed (5-10 mg/mL total protein) on ice and diluted to a working stock of 1 mg/mL with DGAT Assay Buffer (DAB). The DGAT reaction assay was performed by following the procedure described in U.S. Pat. No. 6,607,893 with some modifications that are described below.
Preparation of DGAT1 substrate mixture: 1 mL stock solution of DGAT1 substrate mixture contains (i) 5.6 μL of ^14C oleoyl CoA (16.8 nCi) and 35 μL 1,2-dioleoyl-sn-glycerol (409.5 μM) or (ii) 5.6 μL of ^14C oleoyl CoA (16.8 nCi) and 105 μL 1,2-dioleoyl-sn-glycerol (1228.5 μM) or (iii) 5.6 μL of ^14C oleoyl CoA (16.8 nCi) and 140 μL 1,2-dioleoyl-sn-glycerol (1638 μM).
1,2-sn-dioleoylglycerol substrate concentration in the 1 mL stock solution of DGAT1 substrate mixture was varied depending on the microsome concentration used in the assay reaction. 1,2-dioleoyl-sn-glycerol stock (19.5 mM) was prepared by dissolving 25 mg of 1,2-dioleoyl-sn-glycerol (Sigma, US) in 2060 μL of acetone. The assay was performed in duplicates in a reaction volume of 100 μL. The reaction volume consisted of: • (i) 27.5 μL of DGAT assay buffer (0.25M Sucrose, 1 mM EDTA (pH 8.0), 150 mM Tris-HCl, pH 7.4, 1.25 mg/mL, fatty acid free BSA), • (ii) 10 μL of compound, of present invention or standard (dissolved in DMSO and diluted to 10× with DAB and screened at 10 μM, 5 μM and 1 μM), • (iii) 60 μL DGAT1 substrate mixture taken from a 1 mL stock (16.8 nCi of ^14C oleoyl CoA and 409.5 μM or 1228.5 μM or 1638 μM of 1,2-dioleyl-sn-glycerol), • (iv) 2.5-10 μL of 1 mg/mL of microsomes (the amount of assay buffer was varied depending upon the concentration of microsome to make up the volume to 100 μL). Procedure:
The reaction was started by the addition of 2.5-10 μL of 1 mg/mL of microsomes (iv) to a mixture of (i), (ii) and (iii), vortexed and incubated at 37° C. for 10 minutes. […]

The results in this text go back to patent publication US8835428B2, “Diacylglycerol acyltransferase inhibitors” (Piramal Enterprises Limited, priority 2008, dated 2014).

Usually inhibition stands for how much of the control response was suppressed.

Consider `COC(=O)C(Cc1ccccc1)NC(=O)c1cc(-c2ccc(NC(=O)Nc3ccc(C)cc3)cc2)no1` (centres unmarked) [Example 243, Methyl 3-phenyl-2-(3-(4-(3-p-tolylureido)phenyl)isoxazole-5-carboxamido) propanoate], for which the “% inhibition of hDGAT1” value (At 5 μM) is recorded as “+ (>0% Inhibition ≦50)”.

The compound `COC(=O)[C@H](NC(=O)c1cc(-c2ccc(NS(=O)(=O)c3c(F)cccc3F)cc2)no1)C(C)C` [Example 316, (R)-Methyl 2-(3-(4-(2,6-difluorophenylsulfonamido)phenyl)isoxazole-5-carboxamido)-3-methylbutanoate] had an inhibition at 1 µM of 0 to 50%. The compound `CC(C)C(NC(=O)c1nc(-c2ccc(NC(=O)Nc3ccc(F)cc3F)cc2)no1)C(=O)O` (centres unmarked) [Example 104, 2-(3-(4-(3-(2,4-difluorophenyl)ureido)phenyl)-1,2,4-oxadiazole-5-carboxamido)-3-methylbutanoic acid] displayed an inhibition at 10 µM of 75 to 100%.

With `CC(C)[C@H](NC(=O)c1cc(-c2ccc(NC(=O)Nc3ccc(F)c(F)c3F)cc2)no1)C(=O)O` [Example 191, (S)-3-Methyl-2-(3-(4-(3-(2,3,4-trifluorophenyl)ureido)phenyl)isoxazole-5-carboxamido)butanoic acid], the inhibition at 1 µM lay in the range of 75 to 100%. `CC(C)[C@@H](NC(=S)c1cc(-c2ccc(Nc3nc4ccc(F)cc4s3)cc2)no1)C(=O)O` [Example 43, (R)-2-({3-[4-(6-Fluoro-benzothiazol-2-ylamino)-phenyl]-isoxazole-5-carbothioyl}-amino)-3-methyl-butyric acid] came in with an inhibition at 10 µM of 50 to 75%. The same measure, in the same setting: next, `CC(C)C[C@H](NC(=O)c1cc(-c2ccc(Nc3nc4ccc(F)cc4s3)cc2)no1)C(=O)O` [Example 47, (S)-2-({3-[4-(6-fluoro-benzothiazol-2-ylamino)-phenyl]-isoxazole-5-carbonyl}-amino)-4-methyl-pentanoic acid]: 75 to 100%.

The compound `Cc1ccc(NC(=O)Nc2ccc(-c3cc(C(=O)N[C@@H](Cc4ccc(O)cc4)C(=O)O)on3)cc2)cc1` [Example 273, (S)-3-(4-Hydroxyphenyl)-2-(3-(4-(3-p-tolylureido)phenyl)isoxazole-5-carboxamido)propanoic acid] returned an inhibition at 5 µM (At 5 μM) of 50 to 75%. For `CC(C)C(NC(=O)c1cc(-c2ccc(NC(=O)Nc3cccc(C(F)(F)F)c3)cc2)no1)C(=O)O` (centres unmarked) [Example 278, 3-Methyl-2-(3-(4-(3-(3-(trifluoromethyl)phenyl)ureido)phenyl)isoxazole-5-carboxamido)butanoic acid], the inhibition at 5 µM (At 5 μM) fell in the range of 75 to 100%. `COC(=O)CNC(=S)c1cc(-c2ccc(Nc3nc4ccc(F)cc4s3)cc2)no1` [Example 60, ({3-[4-(6-fluoro-benzothiazol-2-ylamino)-phenyl]-isoxazole-5-carbothioyl}-amino)-acetic acid methyl ester] had an inhibition at 10 µM of 0 to 50%. In the case of `COC(=O)[C@H](C(C)C)N(C)C(=O)c1cc(-c2ccc(NC(=O)Nc3cccc(C(F)(F)F)c3)cc2)no1` [Example 309, (S)-methyl 3-methyl-2-(N-methyl-3-(4-(3-(3-(trifluoromethyl)phenyl)ureido)phenyl)isoxazole-5-carboxamido)butanoate], the inhibition at 1 µM fell in the range of 50 to 75%. `COC(=O)C(NC(=O)c1cc(-c2ccc(NC(=O)Nc3ccccc3F)c(F)c2)no1)C(C)C` (centres unmarked) [Example 147, Methyl 2-(3-(3-fluoro-4-(3-(2-fluorophenyl)ureido)phenyl)isoxazole-5-carboxamido)-3-methylbutanoate] gave an inhibition at 10 µM of 50 to 75%. For the compound `COC(=O)[C@H](NC(=O)c1cc(-c2ccc(NC(=O)Nc3ccccc3Cl)cc2)no1)C(C)C` [Example 220, (R)-Methyl 2-(3-(4-(3-(2-chlorophenyl)ureido)phenyl)isoxazole-5-carboxamido)-3-methylbutanoate], the inhibition at 1 µM was in the range of 0 to 50%. Where the note is “At 5 μM”, `CC(C)[C@H](NC(=O)c1nc(-c2ccc(NC(=O)Nc3ccc(F)cc3)cc2)no1)C(=O)O` [Example 343, (S)-2-(3-(4-(3-(4-Fluorophenyl)ureido)phenyl)-1,2,4-oxadiazole-5-carboxamido)-3-methylbutanoic acid] came in with an inhibition at 5 µM of 50 to 75%. Compound `COc1ccc(NC(=O)Nc2ccc(-c3cc(C(=O)NC(C(=O)O)C(C)C)on3)cc2)cc1` (centres unmarked) [Example 128, 2-(3-(4-(3-(4-Methoxyphenyl)ureido)phenyl)isoxazole-5-carboxamido)-3-methylbutanoic acid] returned an inhibition at 10 µM of 75 to 100%. The compound `COC(=O)[C@@H](NC(=O)c1nc(-c2ccc(NC(=O)Nc3ccccc3)cc2)no1)C(C)C` [Example 351, (S)-Methyl 3-methyl-2-(3-(4-(3-phenylureido)phenyl)-1,2,4-oxadiazole-5-carboxamido)butanoate] displayed an inhibition at 5 µM (At 5 μM) of 0 to 50%. `CC(C)C(NC(=O)c1cc(-c2ccc(NC(=O)Nc3ccc(C(F)(F)F)cc3)cc2)no1)C(=O)O` (centres unmarked) [Example 276, 3-Methyl-2-(3-(4-(3-(4-(trifluoromethyl)phenyl)ureido)phenyl)isoxazole-5-carboxamido)butanoic acid]: the inhibition at 5 µM (At 5 μM) fell in the range of 75 to 100%. On the same count and under the same terms, to `Cc1ccc(NC(=O)Nc2ccc(-c3cc(C(=O)NC(Cc4ccccc4)C(=O)O)on3)cc2)cc1` (centres unmarked) [Example 244, 3-Phenyl-2-(3-(4-(3-p-tolylureido)phenyl)isoxazole-5-carboxamido) propanoic acid] belongs 50 to 75%. The same measure, in the same setting: next, `Cc1cc(NC(=O)Nc2ccccc2F)ccc1-c1cc(C(=O)NC(C(=O)O)C(C)C)on1` (centres unmarked) [Example 136, 2-(3-(4-(3-(2-Fluorophenyl)ureido)-2-methylphenyl)isoxazole-5-carboxamido)-3-methylbutanoic acid]: 75 to 100%. Regarding `CCS/C(=N\[C@@H](C(=O)OC)C(C)C)c1cc(-c2ccc(NC(=O)Nc3ccc(C)cc3)cc2)no1` [Example 225, (R,Z)-Methyl 2-(ethylthio(3-(4-(3-p-tolylureido)phenyl)isoxazol-5-yl)methyleneamino)-3-methylbutanoate], the inhibition at 1 µM fell in the range of 0 to 50%. On to `O=C(Nc1ccc(-c2cc(C(=O)N[C@@H](CO)C(=O)O)on2)cc1)Nc1ccccc1F` [Example 299, (S)-2-(3-(4-(3-(2-Fluorophenyl)ureido)phenyl)isoxazole-5-carboxamido)-3-hydroxypropanoic acid], for which, for the setting “At 5 μM”, the inhibition at 5 µM fell in the range of 50 to 75%.
